Data from paper PMC4122966, “Novel VCP modulators mitigate major pathologies of rd10, a mouse model of retinitis pigmentosa” (Scientific Reports, 2014).
Values joined by “and” are separate entries in the source; they are usually repeats but may differ in a detail not shown here. Equal entries are not always repeated.

Tests used:
[1] = tested on: tunicamycin-treated HeLa cells; assay: western blot of ER stress markers and phospho-Akt in tunicamycin-treated cells; format: cell-based; conditions: Tm 0.5 μg/ml, 5 hours
Procedure: Figure 2 Prevention of cell death and ER stress by KUSs. (a) Photographs of HeLa cells, cultured with DMSO (DMSO) or KUSs (KUS94, KUS121, and KUS187, 20 μM each) for 41 hours in low glucose (0.2 g/l) medium. Scale bar, 100 μm. (b–e) WST (water-soluble tetrazolium salts) values reflecting relative live cell numbers are shown, as optical density (OD) at 450 nm. Error bars indicate SD. (b) WST values of HeLa cells, cultured in low glucose (0.2 g/l) with DMSO (control) or KUSs (50 μM for KUS121; 20 μM for KUS69, KUS94, and KUS187, n = 3) for 41 hours. (c) Cell viability, indicated by WST values of HeLa cells, cultured with tunicamycin (Tm) (0.2 μg/ml) for 41 hours with KUSs (20 μM each, n = 3). (d) WST values of HEK293 cells, cultured under serum-free conditions for 65 hours with DMSO (control) or KUSs (20 μM each, n = 3). *** P < 0.001, vs. DMSO control (Dunnett's test). (e) WST values of HeLa cells, cultured in low glucose (0.2 g/l) medium with different concentrations of KUS121 (5, 10, 20, and 50 μM, n = 3) for 41 hours. ** P = 0.008, *** P < 0.001, vs. DMSO control (Dunnett's test). […]
Figure 4 KUSs and ATP each prevented a decrease of ATP levels and ameliorated ER stress in tunicamycin-treated cells. […] Normally growing HeLa cells were also analyzed (Control). […] Then, ATP amounts from 1.5 × 10^5 cells were measured. * P < 0.05, ** P < 0.01. […]

HeLa cells [2] = assay: immunocytochemistry of laminin γ1 aggregation in tunicamycin-treated cells; format: cell-based
Procedure: (§1) Figure 4 KUSs and ATP each prevented a decrease of ATP levels and ameliorated ER stress in tunicamycin-treated cells. (a) Immunocytochemical analyses of HeLa cells by an anti-laminin γ1 antibody. HeLa cells were treated with 0.5 μg/ml of tunicamycin (Tm) for 5 hours in the presence of KUSs (50 μM), ATP (0.1, 0.3, and 1 mM), methylpyruvate (MePyr) (3 and 10 mM), or vehicle alone (DMSO). Then, cells were fixed and subjected to immunocytochemical analyses. Normally growing HeLa cells were also analyzed (Control). Scale bar, 10 μm. (b) Measurements of the relative amounts of ATP per cell. HeLa cells were treated with tunicamycin (Tm, 0.5 μg/ml) for 24 hours in the presence of KUSs (50 μM) or ATP (0.1 and 1 mM), or vehicle alone (DMSO), and were harvested. Then, ATP amounts from 1.5 × 10^5 cells were measured. * P < 0.05, ** P < 0.01. Error bars indicate SD. (c) Western blot analyses on CHOP. HeLa cells were treated with 0.5 μg/ml of tunicamycin for 5 hours in the presence of KUSs (50 μM), ATP (0.1, 0.3, and 1 mM), methylpyruvate (MePyr) (3 and 10 mM), or vehicle alone (-). Then, cells were harvested and subjected to western blot analyses. Actin served as a loading control. Complete scans of the different blots are presented in Supplementary Fig. 9.

HeLa cells [3] = assay: relative ATP amounts per cell in tunicamycin-treated cells; format: cell-based; conditions: Tm 0.5 μg/ml, 24 hours
Procedure: as §1

cellular VCP functions = assay: immunoblot of ubiquitinated proteins, CHOP (ER stress) and LC3 (autophagy) in cultured cells; format: cell-based
Description: (§2) Figure 1 Structures and characterization of KUSs, novel VCP modulators. (a) Structures and IC50 values of KUS11, KUS31, KUS69, KUS94, KUS121, and KUS187. […] (b) ATPase activity assays of recombinant human […], comparing KUSs and DBeQ. (c) Immunoblot analysis of ubiquitinated proteins, an ER stress marker (CHOP), and an autophagy indicator (LC3), comparing KUSs and DBeQ. As a control, MG132, a proteasome inhibitor, was used for the analysis. Actin served as a loading control. Complete scans of the different blots are presented in Supplementary Fig. 7. (d) Comparison of KUSs and DBeQ for cell death-inducing activities. HeLa cells were treated with 50 μM DBeQ or KUSs for 24 hours. […]

HeLa cells [4] = assay: cell death-inducing activity; format: cell-based; conditions: 50 μM, 24 hours
Description: as §2

VCP = tested on: VCP; design: method as in PMID 21383145; conditions: reported value; read-out: in vitro IC50 (half maximal inhibitory concentration) for VCP; cited from earlier work
recombinant VCP = recombinant VCP (Homo sapiens, UniProt P55072); assay: ATPase activity of recombinant VCP in vitro (modified molybdate assay, [γ-32P]ATP); format: biochemical
Chain of recombinant VCP (P55072 whole entry, species assumed): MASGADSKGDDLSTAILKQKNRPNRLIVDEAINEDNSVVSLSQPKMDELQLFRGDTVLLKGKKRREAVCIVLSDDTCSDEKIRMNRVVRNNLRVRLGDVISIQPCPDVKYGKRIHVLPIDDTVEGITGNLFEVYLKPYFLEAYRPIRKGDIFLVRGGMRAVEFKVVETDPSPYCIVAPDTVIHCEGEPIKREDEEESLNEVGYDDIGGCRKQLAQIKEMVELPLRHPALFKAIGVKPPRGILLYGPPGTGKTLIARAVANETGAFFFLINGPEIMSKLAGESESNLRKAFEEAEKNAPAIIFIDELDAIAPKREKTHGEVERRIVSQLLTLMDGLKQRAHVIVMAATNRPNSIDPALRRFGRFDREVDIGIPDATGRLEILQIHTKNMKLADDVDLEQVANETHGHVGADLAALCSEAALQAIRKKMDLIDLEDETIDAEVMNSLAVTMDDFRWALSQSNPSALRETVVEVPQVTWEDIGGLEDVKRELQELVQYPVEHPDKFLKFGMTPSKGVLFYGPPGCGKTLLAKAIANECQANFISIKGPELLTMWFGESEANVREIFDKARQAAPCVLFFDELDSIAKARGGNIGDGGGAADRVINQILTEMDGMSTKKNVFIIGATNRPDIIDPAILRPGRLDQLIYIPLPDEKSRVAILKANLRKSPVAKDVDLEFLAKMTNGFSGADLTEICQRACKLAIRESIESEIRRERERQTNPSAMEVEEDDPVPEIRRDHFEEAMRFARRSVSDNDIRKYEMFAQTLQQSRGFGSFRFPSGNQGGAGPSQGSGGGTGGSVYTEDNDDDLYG
Procedure: (§3) We measured ATPase activities by modifying the molybdate assay, which was as described previously. In the assay, 1 μg of whole cell soluble lysate of neuronally differentiated PC12 cells, or 500 ng recombinant VCP protein, was incubated in 20 μl of the ATPase assay buffer (20 mM HEPES (pH 7.4), 50 mM KCl, 5 mM MgCl2) with 100 μM [γ-^32P]ATP (18.5 GBq/mmol) (PerkinElmer) at 37°C for 20 min. After incubation, the reaction was quenched by addition of 200 μl of 8% ice-cold trichloroacetic acid solution with 1 mM K2HPO4, and then 50 μl of solution A (3.75% ammonium molybdate, 0.02 M silicotungstic acid in 3 N H2SO4) and 300 μl of n-butyl acetate were added to the reaction. The samples were mixed well and centrifuged at 12,000 × g for 1 min. Then, 200 μl aliquots from the upper organic phases were taken and their radioactivity was determined with a liquid scintillation counter for β-radiation, which determined the amounts of ^32P released.

[5] = tested on: whole cell soluble lysate of neuronally differentiated PC12 cells; assay: total ATPase activity in clarified whole cell lysates; format: biochemical
Procedure: Figure 3 Effects of KUSs on ATPase activities, ATP levels, and acetyl-CoA levels. (a) Inhibition of ATPase activity in clarified whole cell lysates by KUS121, KUS187, and KUS94, but not KUS11. Total ATPase activities in clarified whole cell lysates from differentiated PC12 cells were measured in the absence and presence of KUSs. Relative ATPase activities are shown with values in the absence of KUS (D: DMSO) set at 100%. (b) HeLa cells were cultured in medium with low glucose (0.25 g/l) for 20 hours, with or without KUSs, and ATP levels were measured with luciferase assays. (c) HeLa cells were cultured in medium with low glucose (0.25 g/l) for 20 hours, with or without KUSs, and acetyl-CoA levels were measured. * P < 0.05, ** P < 0.01, *** P < 0.001 vs. DMSO control (Dunnett's test, n = 3).
as §3

[6] = tested on: essentially all tested cultured cells; assay: cellular toxicity on cultured cells; format: cell-based; conditions: up to 50 μM
rd10 mice = assay: rd10 mouse model of retinitis pigmentosa (SD-OCT, electroretinogram, histology, electron microscopy, western blot); format: in vivo; conditions: 21-day-old
Procedure: Starting 7 days after birth, KUS121 or KUS187 was administered daily (50 mg/kg) by intraperitoneal injection. […] To test the visual function of the mice, dark-adapted electroretinograms were recorded. The amplitude of the a-wave, which represents visual function of photoreceptors, was smaller in the control mice than in the KUS-treated mice (Supplementary Fig. 5b and c). The peak latency of the a-wave, which negatively correlates with visual function of photoreceptors, was delayed in the control mice as compared with the KUS-treated mice (Supplementary Fig. 5d). At age 25 days, the thinning of the outer nuclear layer (ONL) was clearly observed in the control mice (Fig. 5a). The outer nuclear layer and the junction line between the inner segment and outer segment (arrow heads in Fig. 5a), which is generally considered to be positively associated with visual function, were clearly detected in the KUS-treated but not in control mice. […] At age 29 days, the photoreceptor layer was barely detected in SD-OCT images, and electroretinogram records were almost flat in control mice. […]
Spectral-domain optical coherence tomography (SD-OCT) examinations using Multiline OCT (Heidelberg Engineering, Heidelberg, Germany) were performed[33] in rd10 mice at ages of 21, 25, 29, and 33days. Total retinal thickness (from inner limiting membrane to Bruch membrane) in rd10 mice was measured using volume scan images[33] within a circle 0.366 mm in diameter, the center of which was adjusted to the center of the optic nerve head. […]
Electroretinogram recording was performed to assess the visual function of rd10 mice at ages of 21, 25, 29, and 33 days. […] Electroretinograms were recorded using a gold loop corneal electrode with a light-emitting diode (Mayo Corp., Inazawa, Japan). […] The electroretinogram response signals were amplified, digitized at 10 kHz with a band-pass filter of 0.3 to 500 Hz, and analyzed (PowerLab 2/25; AD instruments, New South Wales, Australia). […]

SMILES: Nc1ncnc2c1ncn2[C@@H]1O[C@H](COP(=O)(O)OP(=O)(O)OP(=O)(O)O)[C@@H](O)[C@H]1O [ATP]
- induction of ER stress (CHOP induction) ([1]; 0.1 mM ATP): dampen the induction of ER stress
- aggregation of laminin γ1 (HeLa cells [2]; HeLa, Tm 0.5 μg/ml, 5 hours, 0.1 mM ATP): ineffective in preventing the aggregation of laminin γ1
- aggregation of laminin γ1 (HeLa cells [2]; HeLa, Tm 0.5 μg/ml, 5 hours, 1 mM ATP): clearly prevented the aggregation of laminin γ1
- aggregation of laminin γ1 (HeLa cells [2]; tunicamycin-treated HeLa cells, ATP at 0.3 to 1 mM): prevented the aggregation of laminin γ1
- decrease of ATP levels in tunicamycin-treated cells (HeLa cells [3]; ATP 0.1 and 1 mM): prevented decreases of ATP levels

SMILES: c1ccc(CNc2nc(NCc3ccccc3)c3ccccc3n2)cc1 [DBeQ, reference compound]
- induction of accumulation of ubiquitinated proteins, ER stress (CHOP), autophagy (LC3) (cellular VCP functions): induced accumulation of ubiquitinated proteins, ER stress, autophagy
- induction of cell death (HeLa cells [4]): eventually cell death
- IC50 (VCP): 1000 nM

SMILES: Nc1ccc2cc(S(=O)(=O)O)ccc2c1/N=N/c1ccccc1 [KUS11]
- IC50 (recombinant VCP): > 100000 nM
- inhibition of total ATPase activity in clarified lysates [5]: did not show any significant inhibition
- decrease of ATP levels in tunicamycin-treated cells (HeLa cells [3]; KUSs 50 μM): unable to prevent the tunicamycin-elicited ATP decrease

SMILES: CCCCOc1c(C=O)cc(C)cc1-c1ccc(/N=N/c2cc(S(=O)(=O)O)c3ccccc3c2N)cn1 [KUS187]
- IC50 (recombinant VCP): 200 to 300 nM and 186 nM
- lowering of total ATPase activity ([5]; 100 nM compound): approximately 20%
- lowering of total ATPase activity ([5]; 1 μM compound): ~40%
- induction of accumulation of ubiquitinated proteins, ER stress (CHOP), autophagy (LC3) (cellular VCP functions): did not induce any of these phenotypes
- induction of cell death (HeLa cells [4]): did not induce any of these phenotypes
- apparent cellular toxicity [6]: did not manifest any apparent cellular toxicity
- aggregation of laminin γ1 (HeLa cells [2]; HeLa, Tm 0.5 μg/ml, 5 hours, 50 μM KUS): clearly prevented the aggregation of laminin γ1
- outer segment morphology by electron microscopy (rd10 mice): well preserved
- mean amplitude of the a-wave, dark-adapted electroretinogram (rd10 mice; 50 mg/kg daily i.p. from day 7, vs control): larger than that in control rd10 mice

SMILES: COC(=O)C(C)=O [methylpyruvate]
- induction of ER stress (CHOP induction) ([1]; 3 to 10 mM methylpyruvate): dampen the induction of ER stress
- aggregation of laminin γ1 (HeLa cells [2]; HeLa, Tm 0.5 μg/ml, 5 hours, 3 to 10 mM methylpyruvate): ineffective in preventing the aggregation of laminin γ1
